Entries after “also recorded” stand apart in the source; their conditions may differ. Like-named read-outs stand apart in the source and are kept apart here.
Key:
Type in all cases: cell-based
[1] = tested on: NRF2 activity in H1299-NQO1-YFP cells; assay: NRF2 activity reporter IC50 in H1299-NQO1-YFP cells vs NRF2 pathway activators (IncuCyte, YFP/mCherry)
Method: Readings were taken every 2 hours for at least 24 hours. […] Readings were also taken every 2 hours for 96 hours in and IncuCyte S3.
YFP total intensity (correlating to NRF2 activity) was normalized to NLS-mCherry (cell number) total intensity to give a ratio (YFP/mCherry). Ratios at one time point at least 24 hours post compounds were added were used. These numbers were then plotted in Graphpad Prism to calculate IC50s. […] From three biological replicates, percent confluence was used for proliferation assays to calculate IC50s, calculations performed using Graphpad Prism.

[2] = tested on: NRF2 protein; assay: Western blot analysis of NRF2 protein abundance and downstream targets in cell lines; conditions: for NRF2 protein abundance: western blot, 24-48 hours, PYR 10 μM, analogs 1 μM (104 in HEK293T 10 μM), MTX and PEM 0.1 μM, CG 10 μM
Method: Western Blots: KYSE70, HEK293T cells were plated and 24 hours later treated with compounds (see figure legends for details). Either at 24 or 48 hours later, cells were scrapped in RIPA buffer (0.2% deoxycholate, 0.1% SDS, 1% NP40, 150 mM NaCl, 50 mM Tris pH 7.4, 2 mM EDTA) supplemented with protease and phosphatase inhibitors, cleared at 14000×g for 15 minutes at 4° C., and supernatants were quantified by BCA assay (Pierce, 23225). Protein samples (20 μg) were prepared with 1×LDS buffer with 100 mM DTT, ran on NuPAGE 4-12% Bis-tris gels, and transferred onto a […] nitrocellulose membrane (Thermo, 88018). All blots were blocked in 5% milk in TBST for 30 minutes. After incubation of the primary antibody overnight at 4° C. and washed three times with 1×TBST, blots were incubated with LI-COR secondary antibodies for 1-2 hours, washed in 1×TBST thrice, and then imaged via a LI-COR Odyssey instrument (Li-COR, Lincoln, Nebr.).

[3] = tested on: NRF2 mRNA and NRF2 target gene mRNA; assay: RT-qPCR of NRF2 mRNA and NRF2 downstream targets in KYSE70 cells; conditions: 24 or 48 hours, PYR 10 μM, analogs 1 μM, MTX and PEM 0.1 μM
Method: qRT-PCR: Total RNA was extracted using PureLink RNA kit following the manufacturers protocol. Primers for qPCR were designed using the National Center for Biotechnology Information's (NCBI) Primer-BLAST platform. For primer sequences, see Table 2. RNA was quantified using a Nanodrop One (Thermo, Waltham, Mass.), and the reverse transcription reaction was performed using 2 μg of RNA with the iSCRIPT Clear kit with DNAse (Biorad, 170-8891). For the qRT-PCR, PowerUP SYBR Green (Thermo, A25741) was used, and data were analyzed on an AB QuantStudio 6 Flex Real Time PCR machine (Applied Biosystems, Foster City, Calif.). ΔCT values were normalized to housekeeping gene RPL13a and then normalized to DMSO for final ΔΔCT value.

[4] = Table 1, activator CDDO 0.1 μM, H1299-NQO1-YFP cells, read-out: CDDO 0.1 μM IC50 μM ± SEM
[5] = Table 1, activator SULF 2 μM, H1299-NQO1-YFP cells, read-out: SULF 2 μM IC50 μM ± SEM
[6] = Table 1 and text, average over activators CDDO, PRL295, SULF, H1299-NQO1-YFP cells, read-out: Avg IC50
[7] = Table 6 NRF2 inhibitors, read-out: Avg IC50
[8] = read-out: PRL295 5 μM IC50 AM ± SEM, Table 1, activator PRL295 5 μM, H1299-NQO1-YFP cells

| Compound | IC50 [1, 4] | IC50 [1, 5] | IC50 [1, 6] | IC50 [1, 7] | IC50 [1, 8] | further results |
| --- | --- | --- | --- | --- | --- | --- |
| CC1(C)N=C(N)N=C(N)N1c1ccc(Cl)cc1 [CG, reference compound] |  |  |  |  |  | IC50 ([1]; Table 3, activator CDDO 100 nM, H1299-NQO1-YFP cells, read-out: CDDO 100 nM IC50 μM ± SEM): 1.82 ± 0.085 µM; IC50 ([1]; Table 3, activator SULF 2 μM, H1299-NQO1-YFP cells, read-out: SULF 2 μM IC50 μM ± SEM): 1.5 ± 0.0466 µM; IC50 ([1]; Table 3, average over activators, H1299-NQO1-YFP cells, read-out: Avg IC50): 1.7 µM; IC50 ([1]; read-out: PRL295 5 μM IC50 μM ± SEM, Table 3, activator PRL295 5 μM, H1299-NQO1-YFP cells): 1.57 ± 0.008 µM; NRF2 protein abundance [2]: decreased; NRF2 mRNA and NRF2 target gene mRNA [3]: decreased |
| Nc1ncc(-c2ccc(Cl)cc2)c(N)n1 [WCDD103, 5-(4-chlorophenyl)pyrimidine-2,4-diamine] | 16.9 ± 2.56 µM | 12.5 ± 0.798 µM | 13.1 µM | 13.1 µM | 9.99 ± 0.0737 µM |  |
| CCc1nc(N)nc(N)c1-c1cccc(Cl)c1 [WCDD104, 5-(3-chlorophenyl)-6-ethylpyrimidine-2,4-diamine] | 0.103 ± 0.001 µM | 0.129 ± 0.003 µM | 0.1 µM | 0.098 µM | 0.061 ± 0.003 µM | IC50 ([1]; unit inferred, read-out: IC50): 0.1 µM; NRF2 protein on co-treatment with Bortezomib ([2]; BORT 0.04 μM co-treatment, HEK293T, H1299): demonstrated a proteasomal requirement for activity; NRF2 protein abundance [2]: inhibition of NRF2 protein abundance and downstream target gene expression; also recorded: decrease NRF2 protein abundance |
| CCc1nc(N)nc(N)c1-c1ccc(C(C)(F)F)cc1 [WCDD105, 5-(4-(1,1-difluoroethyl)phenyl)-6-ethylpyrimidine-2,4-diamine] | 5.12 ± 0.074 µM | 3.279 ± 0.006 µM | 4.04 µM | 4.04 µM | 3.74 ± 0.499 µM |  |
| CCc1nc(N)nc(N)c1-c1ccc(S(=O)(=O)C2CCCC2)cc1 [WCDD106, 5-(4-(cyclopentylsulfonyl)phenyl)-6-ethylpyrimidine-2,4-diamine] |  |  | > 20 µM | > 20 µM |  |  |
| CCc1nc(N)nc(N)c1-c1ccc(S(=O)(=O)N2CC3(COC3)C2)cc1 [WCDD107, 5-(4-((2-oxa-6-azaspiro[3.3]heptan-6-yl)sulfonyl)phenyl)-6-ethylpyrimidine-2,4-diamine] |  |  | > 20 µM | > 20 µM |  |  |
| CCc1nc(N)nc(N)c1-c1ccc(S(=O)(=O)C2CC3CC3C2)cc1 (stereo not shown) [WCDD108, 5-(4-(bicyclo[3.1.0]hexan-3-ylsulfonyl)phenyl)-6-ethylpyrimidine-2,4-diamine] | 16.9 ± 0.208 µM | 12.56 ± 0.103 µM | 14.9 µM | 14.9 µM | 15.2 ± 1.29 µM |  |
| CCc1nc(N)nc(N)c1-c1ccc(N2CC3CC3C2)cc1 (stereo not shown) [WCDD110, 5-(4-(3-azabicyclo[3.1.0]hexan-3-yl)phenyl)-6-ethylpyrimidine-2,4-diamine] |  |  | > 20 µM | > 20 µM |  |  |
| CCc1nc(N)nc(N)c1-c1ccccc1 [WCDD111, 6-ethyl-5-phenylpyrimidine-2,4-diamine] | 1.1 ± 0.016 µM | 0.91 ± 0.01 µM | 1.18 µM | 1.18 µM | 1.51 ± 0.0329 µM |  |
| CCC1=NC(N)=NC(=O)C1c1ccc(Cl)cc1 (stereo not shown) [WCDD112, 2-amino-5-(4-chlorophenyl)-6-ethylpyrimidin-4(5H)-one] | 19.8 ± 0.338 µM | 10.92 ± 0.0655 µM | 13.9 µM | 13.9 µM | 10.8 ± 0.62 µM |  |
| CCc1nc(N)nc(N)c1-c1cc(Cl)cc(Cl)c1 [WCDD114, 5-(3,5-dichlorophenyl)-6-ethylpyrimidine-2,4-diamine] | 0.134 ± 0.014 µM | 0.111 ± 0.009 µM | 0.1 µM | 0.108 µM | 0.079 ± 0.002 µM | IC50 ([1]; unit inferred, read-out: IC50): 0.1 µM; NRF2 protein abundance [2]: decrease NRF2 protein abundance |
| CCc1nc(N)nc(N)c1-c1ccc2c(c1)CCC2 [WCDD119, 5-(2,3-dihydro-1H-inden-5-yl)-6-ethylpyrimidine-2,4-diamine] | 0.614 ± 0.021 µM | 0.557 ± 0.03 µM | 0.5 µM | 0.57 µM | 0.552 ± 0.003 µM |  |
| CCc1nc(N)nc(N)c1-c1cc(Cl)ccc1Cl [WCDD120, 5-(2,5-dichlorophenyl)-6-ethylpyrimidine-2,4-diamine] |  |  | > 10 µM | > 10 µM |  |  |
| CCc1nc(N)nc(N)c1-c1cccc(Cl)c1F [WCDD121, 5-(3-chloro-2-fluorophenyl)-6-ethylpyrimidine-2,4-diamine] |  |  | > 5 µM | > 5 µM |  |  |
| CCc1nc(N)nc(N)c1-c1cccc(N2CCCC2)c1 [WCDD122, 6-ethyl-5-(3-(pyrrolidin-1-yl)phenyl)pyrimidine-2,4-diamine] |  |  | > 5 µM | > 5 µM |  |  |
| CCc1ncnc(N)c1-c1cccc(Cl)c1 [WCDD125, 5-(3-chlorophenyl)-6-ethylpyrimidin-4-amine] |  |  | > 20 µM | > 20 µM |  |  |
| COCCOCCc1nc(N)nc(N)c1-c1cccc(Cl)c1 [WCDD126, 5-(3-chlorophenyl)-6-(2-(2-methoxyethoxy)ethyl)pyrimidine-2,4-diamine] | 0.461 ± 0.017 µM | 0.397 ± 0.011 µM | 0.514 µM | 0.514 µM | 0.683 ± 0.002 µM |  |
| Nc1nc(N)c(-c2cccc(Cl)c2)c(CC2CCC2)n1 [WCDD127, 5-(3-chlorophenyl)-6-(cyclobutylmethyl)pyrimidine-2,4-diamine] | 0.469 ± 0.002 µM | 0.454 ± 0.006 µM | 0.456 µM | 0.456 µM | 0.444 ± 0.002 µM |  |
| C#CCCCc1nc(N)nc(N)c1-c1cccc(Cl)c1 [WCDD128, 5-(3-chlorophenyl)-6-(pent-4-yn-1-yl)pyrirnidine-2,4-diamine] | 0.244 ± 0.006 µM | 0.163 ± 0.002 µM | 0.248 µM | 0.248 µM | 0.334 ± 0.004 µM |  |
| CCc1nc(NC)nc(NC)c1-c1ccc(Cl)cc1 [WCDD133, 5-(4-chlorophenyl)-6-ethyl-N2,N4-dimethylpyrimidine-2,4-diamine] |  |  | > 20 µM |  |  |  |
| CCc1nc(N)nc(NC)c1-c1ccc(Cl)cc1 [WCDD133a, 5-(4-chlorophenyl)-6-ethyl-N4-methylpyrimidine-2,4-diamine] |  |  | > 20 µM |  |  |  |
| Nc1ncc(-c2cccc(Cl)c2)c(N)n1 [WCDD134, 5-(3-chlorophenyl)pyrimidine-2,4-diamine] | 1.84 ± 0.196 µM | 1.88 ± 0.024 µM | 1.43 µM | 1.43 µM | 1.84 ± 0.196 µM |  |
| NCCCc1nc(N)nc(N)c1-c1cccc(C(F)(F)F)c1 [WCDD135, 6-(3-aminopropyl)-5-(3-(trifluoromethyl)phenyl)pyrimidine-2,4-diamine] |  |  | > 20 µM |  |  |  |
| C#CCCC1(CCC(=O)NCCCc2nc(N)nc(N)c2-c2cccc(C(F)(F)F)c2)N=N1 [WCDD136, 3-(3-(but-3-yn-1-yl)-3H-diazirin-3-yl)-N-(3-(2,6-diamino-5-(3-(trifluoromethyl)phenyl)pyrimidin-4-yl)propyl)propanamide] |  |  | ~0.15 µM |  | 0.153 ± 0.002 µM |  |
| Nc1nc(N)c(-c2cccc(C(F)(F)F)c2)c(CCCNC(=O)CCCC[C@H]2SCC3NC(O)NC32)n1 (stereo partly drawn) [WCDD137, N-(3-(2,6-diamino-5-(3-(trifluoromethyl)phenyl)pyrimidin-4-yl)propyl)-5-((4R)-2-hydroxyhexahydro-1H-thieno[3,4-d]imidazol-4-yl)pentanamide] |  |  | 4.84 µM |  | 4.84 ± 0.284 µM |  |
| C=CCCc1nc(N)nc(N)c1-c1cccc(C(F)(F)F)c1 [WCDD139, 6-(but-3-en-1-yl)-5-(3-(trifluoromethyl)phenyl)pyrimidine-2,4-diamine] | 0.206 ± 0.0014 µM | 0.097 ± 0.003 µM | 0.14 µM | 0.14 µM | 0.106 ± 0.003 µM |  |

Source: patent US20220289686A1, “COMPOSITIONS OF NRF2 INHIBITING AGENTS AND METHODS OF USE THEREOF” (Washington University, priority 2021, published 2022)
